Read-outs that look alike come from different tables or passages of the source.
Experiments:
[1] = target: Bcl-XL (Homo sapiens, UniProt Q07817); details: cited from earlier work
[2] = tested on: cell; details: cell line not specified; cited from earlier work
[3] = tested on: Bcl-2 and Bcl XL; details: cited from earlier work
[4] = tested on: A549 human lung cells expressing low Bcl-2 and high Bcl-XL levels; assay: Acute cytotoxicity (apoptotic activity), Alamar Blue viability; type: cell-based
Description: (§1) The biological activity of the compounds provided herein were assessed in cellular system by the method similar to the one described by Amundson et al. (Amundson, S. A. et al, Cancer Research 2000, 60, 6101-6110), which is incorporated herein by reference in its entirety. The compounds were tested for acute cytotoxicity (apoptotic activity) using two human cancer cell lines expressing high levels of either Bcl-2 or Bcl-XL. HL60, human leukemic cells expressing high Bcl-2 and low Bcl-XL levels, and A549 human lung cells expressing low Bcl-2 and high Bcl-XL levels, were incubated with the compounds at concentrations between 0.5 and 1000 μg/mL for 4 hours at 37° C., 5% CO2. The number of viable cells were measured by mitochondrial transformation of Alamar Blue to a fluorescent dye. LC50 values for each test compound and controls are provided in the individual examples that follow.
(§2) The compounds provided herein were tested for acute cytoxicity (apoptotic activity) using two human cancer cell lines expressing high levels of either Bcl-2 or Bcl-XL. HL-60 cells expressing high Bcl-2 and low Bcl-XL levels, and A549 human lung cells expressing low Bcl-2 and high Bcl-XL levels (Amundson, S. A. et al. Cancer Research 2000, 60, 6101-6110) were incubated with the compounds at concentrations between […] for 4 hours at 37° C., 5% CO2. The number of viable cells were measured my mitochondrial transformation of Alamar Blue to a fluorescent dye. As negative controls, the compounds were tested against the cell lines with low levels of Bcl-2 expression, viz., MDA-453 cells (Enyedy, I. J. et al. J. Med. Chem. 2001, 44, 4313-4324). LC50 values for each compound and controls were determined.

[5] = tested on: HL60, human leukemic cells expressing high Bcl-2 and low Bcl-XL levels; assay: as above; type: cell-based
Description: as §1, §2

[6] = protein not specified, read-out: IC50 (FP)
[7] = Homo sapiens, A549, 4 h, read-out: LC 50 (μM) A549
[8] = Homo sapiens, HL-60, 4 h, read-out: LC 50 (μM) HL-60

Sequence of Bcl-XL (Q07817 whole entry, species assumed): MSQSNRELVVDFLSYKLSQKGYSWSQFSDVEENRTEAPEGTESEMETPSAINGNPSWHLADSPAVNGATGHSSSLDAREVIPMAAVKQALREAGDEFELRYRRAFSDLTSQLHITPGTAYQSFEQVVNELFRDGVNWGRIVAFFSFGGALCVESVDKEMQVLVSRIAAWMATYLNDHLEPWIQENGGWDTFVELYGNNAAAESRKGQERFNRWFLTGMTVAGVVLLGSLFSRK

Row | Compound | IC50 [2] | CC50 [4, 7] | CC50 [5, 8] | further results
1 | Cc1cc2c(C(C)C)c(O)c(O)c(C=O)c2c(O)c1-c1c(C)cc2c(C(C)C)c(O)c(O)c(C=O)c2c1O [Compound 1, Gossypol] | 1.5 µM |  |  | IC50 [1]: 0.4 µM
2 | CCCC[C@H]1C(=O)O[C@H](C)[C@H](NC(=O)c2cccc(NC=O)c2O)C(=O)O[C@@H](C)[C@@H]1OC(=O)CC(C)C [Compound 2, Antimycin] | 1.2 µM |  |  | IC50 [3, 6]: 2.5 µM
3 | CCOC(=O)OC(C#N)C1C=C(N)Oc2ccc(Br)cc21 (stereo not shown) [Compound 4] | 18 µM | > 200 µM | > 200 µM | IC50 [3, 6]: 9 µM
4 | CC(C)C(C(=O)O)C1C(=O)/C(=C/c2ccc(Br)cc2)SC1=S (stereo not shown) [Compound 5] | ~90 µM | > 200 µM | > 200 µM | IC50 [3, 6]: 2.4 µM
5 | O=C(Nc1cc(S(=O)(=O)c2ccc(Cl)cc2)ccc1Cl)c1cc(Cl)cc(I)c1O [Compound 6] | ~30 µM | > 200 µM | > 200 µM | IC50 [3, 6]: 3.3 µM
6 | CC(C)Cc1cc(-c2ccc(-c3ccc(OCC(=O)O)c(CC(C)C)c3)c(Cc3cccc4ccccc34)c2)ccc1CCC(=O)O [Compound 7] |  | > 200 µM | > 200 µM | IC50 ([3]; Bcl-2 antagonist designed by molecular modeling, read-out: IC50 value): 0.114 µM
7 | [O-][N+]1=[N+]([O-])c2ccc(OCC(F)(F)F)cc2CCc2cc(OCC(F)(F)F)ccc21 [Example 1, dibenzo[c,g][1,2]diazocine, 11,12-dihydro-2,9-bis(2,2,2-trifluoroethoxy)-, 5,6-dioxide] |  |  |  | CC50 ([4]; Homo sapiens, A549, 4 hours at 37° C., read-out: LC50 value in A549 cell line): 80.9 µM; CC50 ([5]; Homo sapiens, HL-60, 4 hours at 37° C., read-out: LC50 value in HL-60 cell line): 26.1 µM
8 | [O-][N+]1=[N+]([O-])c2ccc(OC(F)F)cc2CCc2cc(OC(F)F)ccc21 [Example 2, dibenzo[c,g][1,2]diazocine, 2,9-bis(difluoromethoxy)-11,12-dihydro-5,6-dioxide] |  |  |  | CC50 [4]: 298 µM; CC50 [5]: 18.5 µM
9 | [O-][n+]1nc2ccccc2c2ccccc21 [compound 9] |  | > 200 µM | > 200 µM | 
10 | [O-]/[N+]1=N/c2ccc(F)cc2CCc2cc(F)ccc21 [compound 13] |  | > 200 µM | > 200 µM | 
11 | [O-]/[N+]1=N/c2ccc(OCc3ccccc3)cc2CCc2cc(OCc3ccccc3)ccc21 [compound 15] |  | > 200 µM | > 200 µM | 
12 | [O-]/[N+]1=N/c2ccc(OC(F)F)cc2CCc2cc(OC(F)F)ccc21 [compound 16] |  | > 200 µM | > 200 µM | 
13 | [O-]/[N+]1=N/c2ccc(Oc3ccc(C(F)(F)F)cn3)cc2CCc2cc(Oc3ccc(C(F)(F)F)cn3)ccc21 [compound 18] |  | > 200 µM | > 200 µM | 
14 | [O-]/[N+]1=N/c2ccc(Oc3ccc(C(F)(F)F)cn3)cc2CCc2ccccc21 [compound 19] |  | > 200 µM | > 200 µM | 
15 | CCS(=O)(=O)c1ccc2c(c1)CCc1cc(S(=O)(=O)CC)ccc1/[N+]([O-])=N\2 [compound 21] |  | > 200 µM | > 200 µM | 
